We go through 2 molecules from patent US9790209B2, “Kinase inhibitors” (Respivert Limited, priority 2012, dated 2017).

SMILES strings stand for the structures. Like-named read-outs stand apart in the source and are kept apart here.

The target of one assay is p38 MAPKα (Homo sapiens (Human), UniProt Q16539). As to the kind of experiment: p38 MAPKα enzyme inhibition (Method 2), Z-LYTE FRET. The format is biochemical. On the procedure: (§1) The enzyme inhibitory activities of compounds disclosed herein are determined by FRET using synthetic peptides labelled with both donor and acceptor fluorophores (Z-LYTE, Invitrogen Ltd., Paisley, UK).
Chain of p38 MAPKα (Q16539 whole entry, canonical isoform): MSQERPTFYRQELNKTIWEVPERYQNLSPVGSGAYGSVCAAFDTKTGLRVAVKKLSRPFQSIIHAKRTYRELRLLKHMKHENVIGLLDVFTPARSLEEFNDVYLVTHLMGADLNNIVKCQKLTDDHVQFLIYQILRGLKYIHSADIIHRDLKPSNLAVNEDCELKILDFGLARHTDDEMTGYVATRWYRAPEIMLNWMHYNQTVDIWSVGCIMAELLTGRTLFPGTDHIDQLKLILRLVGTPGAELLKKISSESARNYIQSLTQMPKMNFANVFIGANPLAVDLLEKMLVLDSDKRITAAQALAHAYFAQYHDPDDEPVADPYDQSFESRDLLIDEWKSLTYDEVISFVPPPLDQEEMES
The inhibitory activities of test compounds against the p38 MAPKα isoform (MAPK14: Invitrogen), are evaluated indirectly by determining the level of activation/phosphorylation of the down-stream molecule, MAPKAP-K2. The p38 MAPKα protein (80 ng/mL, 2.5 μL) is mixed with the test compound (2.5 μL of either 4 μg/mL, 0.4 μg/mL, 0.04 μg/mL or 0.004 μg/mL) for 2 hr at RT. […] The mixture is incubated for 1 hr at RT. Development reagent (protease, […]) is added for 1 hr prior to detection in a fluorescence microplate reader (Varioskan® Flash, ThermoFisher Scientific).
This method follows the same steps as Method 1 above, but utilises a higher concentration of the p38 MAPKα protein (2.5 μL of 200 ng/mL protein instead of 2.5 μL of 80 ng/mL protein) for mixing with the test compound.
(§2) In all cases, the site-specific protease cleaves non-phosphorylated peptide only and eliminates the FRET signal. Phosphorylation levels of each reaction are calculated using the ratio of coumarin emission (donor) over fluorescein emission (acceptor), for which high ratios indicate high phosphorylation and low ratios indicate low phosphorylation levels. The percentage inhibition of each reaction is calculated relative to non-inhibited control and the 50% inhibitory concentration (IC50 value) is then calculated from the concentration-response curve.

The test system of assay [1] is TNBS-induced colitis in mice. As to the kind of experiment: TNBS-induced colitis in mice. The format is in vivo. Further details: Ulcer grade / LP inflammation: scale not given here. To be noted: for Ulcer grade / LP inflammation: 2 days; for Activity in in vivo model of colonic inflammation (histopathology analysis) / Inflammatory cell infiltrate in the reticular and lamina propria zones: assay (iv) conducted over 2 days; for Ulcer grade and epithelial repair compared to the vehicle control: dosed orally at 5 mg/kg (Example 2: at 1 and at 5 mg/kg). The method, then: On Day 0 of the study TNBS (200 μL) is administered intra-colonically via a plastic catheter followed by BID dosing of the vehicle, reference or test compound for 2 or 4 days. During the study animals are weighed every day and stool observations are made and recorded as a score, based on stool consistency. At the time of sacrifice on Day 2 (or Day 4) the large intestine is removed and the length and weight recorded. Sections of the colon are taken for either MPO analysis to determine neutrophil infiltration or for histopathology involving scoring to determine disease severity.

A further assay concerns PBMCs. The experiment in a line: LPS-induced TNFα/IL-8 release in PBMC cells. The format is cell-based. The settings on record: Homo sapiens, LPS-stimulated PBMCs, IL-8, read-out: IC50 Values for Inhibition of Cytokine Release PBMCs IL-8. The gist of the method:
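Human PBMCs from healthy donors, isolated by density gradient, were pretreated with compound for 2 h and then stimulated with 1 ng/mL LPS (E. coli 0111:B4) for 24 h at 37° C, 5% CO2. Supernatant IL-8 and TNFα were measured by sandwich ELISA, and IC50 was taken from the dose-response curve.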

A further assay deals with d-U937 cells. The experiment in a line: LPS-induced TNFα/IL-8 release in d-U937 cells. The format is cell-based. The settings on record: Homo sapiens, dU937, LPS-stimulated d-U937 cells. The method, then:
U937 cells, a human monocytic cell line, are differentiated to macrophage-type cells by incubation with phorbol myristate acetate (PMA; 100 ng/mL) for 48 to 72 hr. Cells are pre-incubated with final concentrations of test compound for 2 hr and are then stimulated with 0.1 μg/mL of LPS (from E. Coli: 0111:B4, Sigma) for 4 hr. The supernatant is collected for determination of TNFα and IL-8 concentrations by sandwich ELISA (Duo-set, R&D systems). The inhibition of TNFα production is calculated as a percentage of that achieved by 10 μg/mL of BIRB796 at each concentration of test compound by comparison against vehicle control. The relative 50% effective concentration (REC50) is determined from the resultant concentration-response curve. The inhibition of IL-8 production is calculated at each concentration of test compound by comparison with vehicle control. The 50% inhibitory concentration (IC50) is determined from the resultant concentration-response curve.

For another assay, the target named is c-Src (Homo sapiens (Human), UniProt P12931). As to the kind of experiment: c-Src enzyme inhibition, Z-LYTE FRET. Format: biochemical. On the procedure: as §1
Chain of c-Src (P12931 whole entry, looked up): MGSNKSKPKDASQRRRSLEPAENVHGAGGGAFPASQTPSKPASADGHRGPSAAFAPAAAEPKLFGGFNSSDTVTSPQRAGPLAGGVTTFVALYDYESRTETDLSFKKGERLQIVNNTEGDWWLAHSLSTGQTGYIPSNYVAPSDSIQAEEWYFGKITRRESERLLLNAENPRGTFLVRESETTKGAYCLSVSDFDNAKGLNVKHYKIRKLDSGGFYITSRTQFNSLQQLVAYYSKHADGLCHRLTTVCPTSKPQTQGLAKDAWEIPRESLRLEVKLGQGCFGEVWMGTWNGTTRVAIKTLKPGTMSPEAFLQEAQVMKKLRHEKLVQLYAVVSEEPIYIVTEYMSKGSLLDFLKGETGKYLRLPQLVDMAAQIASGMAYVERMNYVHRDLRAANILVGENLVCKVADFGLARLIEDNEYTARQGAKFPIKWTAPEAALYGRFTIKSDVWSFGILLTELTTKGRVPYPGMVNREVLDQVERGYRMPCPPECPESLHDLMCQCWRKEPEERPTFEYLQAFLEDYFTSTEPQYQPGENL
(§3) The inhibitory activities of compounds of the invention against c-Src and Syk enzymes (Invitrogen), are evaluated in a similar fashion to that described hereinabove. The relevant enzyme (3000 ng/mL or 2000 ng/mL respectively, 2.5 μL) is incubated with the test compound (either 4 μg/mL, 0.4 μg/mL, 0.04 μg/mL, or 0.004 μg/mL, 2.5 μL each) for 2 hr at RT. The FRET peptides (8 μM. 2.5 μL), and appropriate ATP solutions (2.5 μL, 800 μM for c-Src, and 60 μM ATP for Syk) are then added to the enzymes/compound mixtures and incubated for 1 hr. Development reagent (protease, 5 μL) is added for 1 hr prior to detection in a fluorescence microplate reader (Varioskan® Flash, ThermoFisher Scientific).
as §2

The target in another assay is Syk (Homo sapiens (Human), UniProt P43405). As to the kind of experiment: Syk enzyme inhibition, Z-LYTE FRET. Format: biochemical. On the procedure: as §1, §3, §2
The target in another assay is GSK3α (Homo sapiens (Human), UniProt P49840). The experiment in a line: GSK 3α enzyme inhibition (Method 2), Z-LYTE FRET. The format is biochemical. In a few lines:
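GSK3-α protein preincubated with compound for 105 min, then Z-LYTE FRET peptide and ATP added for 1 h before protease development for 1 h. Phosphorylation taken from coumarin/fluorescein emission ratio; percent inhibition against uninhibited control and IC50 calculated from concentration-response curves.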

Where [2] appears, read: IL-8, read-out: IC50 Values for Inhibition of Cytokine Release dU937 cells IL-8.

Chain of GSK3α (P49840 whole entry): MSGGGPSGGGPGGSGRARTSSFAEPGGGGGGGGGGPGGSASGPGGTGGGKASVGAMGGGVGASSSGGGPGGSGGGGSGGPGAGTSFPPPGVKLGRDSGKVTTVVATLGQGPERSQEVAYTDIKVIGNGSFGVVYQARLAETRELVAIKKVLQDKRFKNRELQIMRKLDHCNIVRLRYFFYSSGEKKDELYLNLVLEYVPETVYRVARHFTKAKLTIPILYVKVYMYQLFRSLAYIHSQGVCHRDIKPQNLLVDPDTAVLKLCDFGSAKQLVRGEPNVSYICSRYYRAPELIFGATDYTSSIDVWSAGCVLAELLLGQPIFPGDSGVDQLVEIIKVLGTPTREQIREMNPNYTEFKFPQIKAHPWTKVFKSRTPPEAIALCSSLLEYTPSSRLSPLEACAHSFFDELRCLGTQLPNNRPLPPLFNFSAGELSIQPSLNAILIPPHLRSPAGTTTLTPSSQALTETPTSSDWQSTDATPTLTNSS

In general, IC50 refers to the concentration at which inhibition is half-maximal. As to `C#CC(C)(C)c1cc(NC(=O)Nc2ccc(Oc3ccnc(Nc4cc(OC)cc(OCCOCCOCCOC)c4)n3)c3ccccc23)n(-c2ccc(C)cc2)n1` [Example 13, 1-(4-((2-((3-Methoxy-5-(2-(2-(2-methoxyethoxy)ethoxy)ethoxy)phenyl)amino)pyrimidin-4-yl)oxy)naphthalen-1-yl)-3-(3-(2-methylbut-3-yn-2-yl)-1-(p-tolyl)-1H-pyrazol-5-yl)urea], the IC50 was 152 nM against p38 MAPKα; 1.7 nM in the assay with PBMCs; 0.5 nM in the assay with d-U937 cells (setting [2]); 16 nM at c-Src; 61 nM against Syk; 6400 nM against GSK3α. The Ulcer grade in assay [1] (Experiment 2, 1 mg/kg oral BID, TNBS + Vehicle 4.4 ± 0.2) is 3.0 ± 0.4; in assay [1] (Experiment 2, 5 mg/kg oral BID, TNBS + Vehicle 4.4 ± 0.2), 2.9 ± 0.5. Also, the LP inflammation in assay [1] (Experiment 2, 1 mg/kg oral BID, TNBS + Vehicle 4.5 ± 0.2) worked out at 2.8 ± 0.3; in assay [1] (Experiment 2, 5 mg/kg oral BID, TNBS + Vehicle 4.5 ± 0.2), 2.3 ± 0.3. For the same molecule, the “Activity in in vivo model of colonic inflammation (histopathology analysis)” value in assay [1] was “significant activity”. Besides, in assay [1], the “Inflammatory cell infiltrate in the reticular and lamina propria zones” value was “marked reduction”. For the same molecule, in assay [1], the “Ulcer grade and epithelial repair compared to the vehicle control” value is “marked improvements”.

For `C#CC(C)(C)c1cc(NC(=O)Nc2ccc(Oc3ccnc(Nc4cc(C)c5[nH]ncc5c4)n3)c3ccccc23)n(-c2ccc(C)cc2)n1` [Example 2, 1-(4-((2-((7-Methyl-1H-indazol-5-yl)amino)pyrimidin-4-yl)oxy)naphthalen-1-yl)-3-(3-(2-methylbut-3-yn-2-yl)-1-(p-tolyl)-1H-pyrazol-5-yl)urea], the IC50 at p38 MAPKα was 380 nM; with PBMCs it was 2 nM; with d-U937 cells (setting [2]) it was 0.9 nM; in the assay on d-U937 cells (TNFα (method describes REC50 relative to BIRB796), read-out: IC50 Values for Inhibition of Cytokine Release dU937 cells TNFα) it was 0.4 nM; against c-Src, 24 nM; against Syk it was 50 nM. Further, at GSK3α, the half-inhibitory concentration (IC50) is > 10000 nM. Further, the LP inflammation was determined as 2.7 ± 0.4 in assay [1] (Experiment 1, 1 mg/kg oral BID, TNBS + Vehicle 3.9 ± 0.3) and 1.7 ± 0.4 in assay [1] (Experiment 1, 5 mg/kg oral BID, TNBS + Vehicle 3.9 ± 0.3). Also, the Ulcer grade came out at 3.4 ± 0.6 in assay [1] (Experiment 1, 1 mg/kg oral BID, TNBS + Vehicle 4.0 ± 0.5) and 2.4 ± 0.6 in assay [1] (Experiment 1, 5 mg/kg oral BID, TNBS + Vehicle 4.0 ± 0.5). Further, the “Activity in in vivo model of colonic inflammation (histopathology analysis)” value in assay [1] was “significant activity”. Besides, the “Inflammatory cell infiltrate in the reticular and lamina propria zones” value in assay [1] was “marked reduction”. For the same molecule, in assay [1], the “Ulcer grade and epithelial repair compared to the vehicle control” value is recorded as “marked improvements”.
